Measured values taken from patent US20120264735A1 (priority 2009, published 2012).

Each molecule was assayed against T1, c-Met kinase (recombinant c-Met) (Homo sapiens, UniProt P08581) (assay: In vitro kinase assay I (homogeneous time-resolved fluorescence tyrosine kinase assay)).
T1 construct: 0.27 nM recombinant c-Met
Type: biochemical
Experimental: The kinase activities of c-Met are measured using a modified version of the homogeneous-time-resolved tyrosine kinase assay described by Park et al. (1999, Anal. Biochem. 269:94-104).
The procedure for determining the potency of a compound to inhibit c-Met kinase comprises the following steps: • 1. Prepare 3-fold serial diluted compound solutions in 100% dimethyl sulfoxide (DMSO) at 20× of the desired final concentrations in a 384-well plate. • 2. Prepare a master reaction mix containing 6.67 mM MgCl2, 133.3 mM NaCl, 66.7 mM Tris-HCl (pH 7.4), 0.13 mg/ml BSA, 2.67 mM dithiothreitol, 0.27 nM recombinant c-Met and 666.7 nM biotinylated synthetic peptide substrate (biotin-ahx-EQEDEPEGDYFEWLE-CONH2) (SEQ.ID.NO.:1). • 3. In a black assay plate, add 1.5 μl of compound solution (or DMSO) and 22.5 μl of master reaction mix per well. Initiate the kinase reaction by adding 6 μl of 0.25 mM MgATP per well. Allow the reactions to proceed for 60 min at room temperature. The final conditions for the reaction are 0.2 nM c-Met, 0.5 μM substrate, 50 μM MgATP, 5 mM MgCl2, 100 mM NaCl, 2 mM DTT, 0.1 mg/ml BSA, 50 mM Tris (pH 7.4) and 5% DMSO. • 4. Stop the kinase reaction with 30 μl of Stop/Detection buffer containing 10 mM EDTA, 25 mM HEPES, 0.1% TRITON X-100, 0.750 nM Eu-chelate labeled anti-phosphotyrosine antibody PY20 (cat. #AD0067, PerkinElmer) and 50 μg/ml Streptavidin-allophycocyanin conjugate (cat. #PJ25S, Prozyme). • 5. Read HTRF signals on a Victor reader (PerkinElmer) in HTRF mode after 60-min incubation at room temperature in the dark. • 6. IC50 is determined by fitting the observed relationship between compound concentration and HTRF signal with a 4-parameter logistic equation. II. GTL-16 pY1349 Cell-Based Assay

T1 sequence (P08581 25-1390): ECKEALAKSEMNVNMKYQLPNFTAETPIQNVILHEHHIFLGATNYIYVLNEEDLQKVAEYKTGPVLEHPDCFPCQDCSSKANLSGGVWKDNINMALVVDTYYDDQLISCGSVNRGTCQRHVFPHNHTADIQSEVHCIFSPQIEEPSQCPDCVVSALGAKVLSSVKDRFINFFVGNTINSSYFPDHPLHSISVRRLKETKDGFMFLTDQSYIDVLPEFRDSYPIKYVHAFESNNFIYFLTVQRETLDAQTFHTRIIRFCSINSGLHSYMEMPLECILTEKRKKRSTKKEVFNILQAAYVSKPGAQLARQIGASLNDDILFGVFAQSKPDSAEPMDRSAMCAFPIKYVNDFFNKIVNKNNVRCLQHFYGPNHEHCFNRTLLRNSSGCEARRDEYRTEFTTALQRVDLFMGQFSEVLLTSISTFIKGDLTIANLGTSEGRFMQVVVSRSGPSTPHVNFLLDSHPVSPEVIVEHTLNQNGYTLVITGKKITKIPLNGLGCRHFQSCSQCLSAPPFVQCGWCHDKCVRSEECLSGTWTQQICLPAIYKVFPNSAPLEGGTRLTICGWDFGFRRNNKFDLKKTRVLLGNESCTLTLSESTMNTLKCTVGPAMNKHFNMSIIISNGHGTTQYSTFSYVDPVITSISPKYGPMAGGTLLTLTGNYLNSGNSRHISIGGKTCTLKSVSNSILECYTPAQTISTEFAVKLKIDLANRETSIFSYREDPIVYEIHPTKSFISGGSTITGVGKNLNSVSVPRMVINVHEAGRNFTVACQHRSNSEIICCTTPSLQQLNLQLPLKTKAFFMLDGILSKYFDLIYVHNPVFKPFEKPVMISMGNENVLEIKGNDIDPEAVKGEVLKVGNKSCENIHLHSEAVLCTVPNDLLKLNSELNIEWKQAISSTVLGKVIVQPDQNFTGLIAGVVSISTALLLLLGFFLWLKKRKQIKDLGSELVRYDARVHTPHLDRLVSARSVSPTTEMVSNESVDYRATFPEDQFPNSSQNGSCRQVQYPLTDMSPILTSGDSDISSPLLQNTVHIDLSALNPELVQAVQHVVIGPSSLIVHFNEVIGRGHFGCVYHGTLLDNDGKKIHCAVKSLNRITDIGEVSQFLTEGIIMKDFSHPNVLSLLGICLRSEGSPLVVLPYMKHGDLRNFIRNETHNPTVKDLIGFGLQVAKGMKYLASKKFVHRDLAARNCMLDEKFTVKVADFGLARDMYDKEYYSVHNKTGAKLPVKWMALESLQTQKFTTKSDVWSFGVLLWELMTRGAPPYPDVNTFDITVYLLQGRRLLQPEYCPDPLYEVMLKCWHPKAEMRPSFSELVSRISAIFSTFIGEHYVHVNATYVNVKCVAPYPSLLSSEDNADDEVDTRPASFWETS

IC50, < 100 nM:
O=C(Nc1cccc(Cc2nn(-c3cc(F)c(F)c(F)c3)ccc2=O)c1)OCC1COCCO1 (racemic) [Example 513, rac-1,4-dioxan-2-ylmethyl (3-{[4-oxo-1-(3,4,5-trifluorophenyl)-1,4-dihydropyridazin-3-yl]methyl}phenyl)carbamate]
O=C(Nc1cccc(Cc2nn(-c3cc(F)cc(F)c3)ccc2=O)c1)OCC1COCCO1 (racemic) [Example 520, rac-1,4-dioxan-2-ylmethyl (3-{[1-(3,5-difluorophenyl)-4-oxo-1,4-dihydropyridazin-3-yl]methyl}phenyl)carbamate]
Cn1cc(-n2ccc(=O)c(Cc3cccc(NC(=O)OCC4CCOC4)c3)n2)cn1 (racemic) [Example 542, rac-tetrahydrofuran-3-ylmethyl (3-{[1-(1-methyl-1H-pyrazol-4-yl)-4-oxo-1,4-dihydropyridazin-3-yl]methyl}phenyl)carbamate]
O=C(Nc1cccc(Cc2nn(-c3cc(F)c(F)c(F)c3)ccc2=O)c1)OCC1CCOC1 (racemic) [Example 559, rac-tetrahydrofuran-3-ylmethyl (3-{[4-oxo-1-(3,4,5-trifluorophenyl)-1,4-dihydropyridazin-3-yl]methyl}phenyl)carbamate]
Cn1cc(-n2ccc(=O)c(Cc3cccc(NC(=O)OCC4CCCO4)c3)n2)cn1 (racemic) [Example 562, rac-tetrahydrofuran-2-ylmethyl (3-{[1-(1-methyl-1H-pyrazol-4-yl)-4-oxo-1,4-dihydropyridazin-3-yl]methyl}phenyl)carbamate]
Cn1cc(-n2ccc(=O)c(Cc3cccc(NC(=O)OCC4CCCCO4)c3)n2)cn1 (racemic) [Example 563, rac-tetrahydro-2H-pyran-2-ylmethyl (3-{[1-(1-methyl-1H-pyrazol-4-yl)-4-oxo-1,4-dihydropyridazin-3-yl]methyl}phenyl)carbamate]
Cn1cc(-n2ccc(=O)c(Cc3cccc(NC(=O)OCC4COCCO4)c3)n2)cn1 (racemic) [Example 568, rac-1,4-dioxan-2-ylmethyl (3-{[1-(1-methyl-1H-pyrazol-4-yl)-4-oxo-1,4-dihydropyridazin-3-yl]methyl}phenyl)carbamate]
Cn1cc(-n2ccc(=O)c(Cc3cccc(NC(=O)OCC4CCCOC4)c3)n2)cn1 (racemic) [Example 569, rac-tetrahydro-2H-pyran-3-ylmethyl (3-{[1-(1-methyl-1H-pyrazol-4-yl)-4-oxo-1,4-dihydropyridazin-3-yl]methyl}phenyl)carbamate]
CCC(C)COC(=O)Nc1cccc(Cc2nn(-c3cnn(C)c3)ccc2=O)c1 (racemic) [Example 573, rac-2-methylbutyl (3-{[1-(1-methyl-1H-pyrazol-4-yl)-4-oxo-1,4-dihydropyridazin-3-yl]methyl}phenyl)carbamate]
Cn1cc(-n2ccc(=O)c(Cc3cccc(NC(=O)OCC4CCO4)c3)n2)cn1 (racemic) [Example 578, rac-oxetan-2-ylmethyl (3-{[1-(1-methyl-1H-pyrazol-4-yl)-4-oxo-1,4-dihydropyridazin-3-yl]methyl}phenyl)carbamate]
CCC(COC(=O)Nc1cccc(Cc2nn(-c3cccc(C#N)c3)ccc2=O)c1)OC (racemic) [Example 581, rac-2-methoxybutyl (3-{[1-(3-cyanophenyl)-4-oxo-1,4-dihydropyridazin-3-yl]methyl}phenyl)carbamate]
N#Cc1cccc(-n2ccc(=O)c(Cc3cccc(NC(=O)OCC4CCOC4)c3)n2)c1 (racemic) [Example 583, rac-tetrahydrofuran-3-ylmethyl (3-{[1-(3-cyanophenyl)-4-oxo-1,4-dihydropyridazin-3-yl]methyl}phenyl)carbamate]
COCCN1CCC(COC(=O)Nc2cccc(Cc3nn(-c4cccc(C#N)c4)ccc3=O)c2)C1 (racemic) [Example 585, rac-[1-(2-methoxyethyl)pyrrolidin-3-yl]methyl (3-{[1-(3-cyanophenyl)-4-oxo-1,4-dihydropyridazin-3-yl]methyl}phenyl)carbamate]
CCC(COC(=O)Nc1cccc(Cc2nn(-c3cc(F)cc(F)c3)ccc2=O)c1)OC (racemic) [Example 591, rac-2-methoxybutyl (3-{[1-(3,5-difluorophenyl)-4-oxo-1,4-dihydropyridazin-3-yl]methyl}phenyl)carbamate]
O=C(Nc1cccc(Cc2nn(-c3cc(F)cc(F)c3)ccc2=O)c1)OCC1CCOC1 (racemic) [Example 593, rac-tetrahydrofuran-3-ylmethyl-(3-{[1-(3,5-difluorophenyl)-4-oxo-1,4-dihydropyridazin-3-yl]methyl}phenyl)carbamate]
COCCN1CCC(COC(=O)Nc2cccc(Cc3nn(-c4cc(F)cc(F)c4)ccc3=O)c2)C1 (racemic) [Example 594, rac-[1-(2-methoxyethyl)pyrrolidin-3-yl]methyl-(3-{[1-(3,5-difluorophenyl)-4-oxo-1,4-dihydropyridazin-3-yl]methyl}phenyl)carbamate]
N#Cc1cccc(-n2ccc(=O)c(Cc3cccc(NC(=O)OCC4COCCO4)c3)n2)c1 (racemic) [Example 601, rac-1,4-dioxan-2-ylmethyl (3-{[1-(3-cyanophenyl)-4-oxo-1,4-dihydropyridazin-3-yl]methyl}phenyl)carbamate]
O=C(Nc1cccc(Cc2nn(-c3ccc(F)c(F)c3)ccc2=O)c1)OCC1COCCO1 (racemic) [Example 603, rac-1,4-dioxan-2-ylmethyl (3-{[1-(3,4-difluorophenyl)-4-oxo-1,4-dihydropyridazin-3-yl]methyl}phenyl)carbamate]
O=C(Nc1cccc(Cc2nn(-c3cc(F)cc(F)c3)ccc2=O)c1)OCC1CCCOC1 (racemic) [Example 607, rac-tetrahydro-2H-pyran-3-ylmethyl (3-{[1-(3,5-difluorophenyl)-4-oxo-1,4-dihydropyridazin-3-yl]methyl}phenyl)carbamate]
Cn1cc(-n2ccc(=O)c(Cc3cccc(NC(=O)OCC4CCOC(C)(C)C4)c3)n2)cn1 (racemic) [Example 611, rac-(2,2-dimethyl-tetrahydro-2H-pyran-4-yl)methyl (3-{[1-(1-methyl-1H-pyrazol-4-yl)-4-oxo-1,4-dihydropyridazin-3-yl]methyl}phenyl)carbamate]
Cn1cc(-n2ccc(=O)c(Cc3cccc(NC(=O)OCCC4(O)CCOC(C)(C)C4)c3)n2)cn1 (racemic) [Example 612, rac-2-(4-hydroxy-2,2-dimethyl-tetrahydro-2H-pyran-4-yl)ethyl (3-{[1-(1-methyl-1H-pyrazol-4-yl)-4-oxo-1,4-dihydropyridazin-3-yl]methyl}phenyl)carbamate]
Cn1cc(-n2ccc(=O)c(Cc3cccc(NC(=O)OCC(N)C(F)(F)F)c3)n2)cn1 (racemic) [Example 619, rac-2-amino-3,3,3-trifluoropropyl (3-{[1-(1-methyl-1H-pyrazol-4-yl)-4-oxo-1,4-dihydropyridazin-3-yl]methyl}phenyl)carbamate]
Cn1cc(-n2ccc(=O)c(Cc3cccc(NC(=O)OCC(F)CN)c3)n2)cn1 (racemic) [Example 621, rac-3-amino-2-fluoropropyl (3-{[1-(1-methyl-1H-pyrazol-4-yl)-4-oxo-1,4-dihydropyridazin-3-yl]methyl}phenyl)carbamate]
